Assay results taken from patent US5830994A, “Peptide derivatives of alpha-MSH and their application” (Institut Europeen De Biologie Cellulaire, priority 1993, dated 1998).

Tests used:
TNF-α = assay: Inhibition of TNF-α induced by LPS in mice (DAYNES technique), serum ELISA; format: in vivo
Method: This anti-inflammatory activity was complemented by a study of the immunosuppressive activity of PIV against Tumor Necrosis Factor-α.
Inhibition of the activity of TNF-α by the Peptide PIV
The DAYNES techniques described in Example 8 are used.
40 μg of PIV in 0.2 ml of physiological saline--that is to say 200 μg/ml
25 μg of PIV in 0.2 ml of physiological saline--that is to say 125 μg/ml
10 μg of PIV in 0.2 ml of physiological saline--that is to say 50 μg/ml
It was carried out on mice separated into 5 batches of 5 animals
The animals in the control batches receive an injection of 0.2 ml of physiological saline intravenously. The animals in the PIV batches receive an injection of the product at various dosages intravenously. (Caudal vein)
Immediately after the treatment of the mice, a sublethal dose of LPS (1.2 mg in 0.2 ml of physiological saline) is intraperitoneally injected into each animal in the batches and positive control.
Ninety minutes later, all the mice are punctured through the retroorbital sinuses on dry tubes. As soon as the blood coagulates, the clot is detached. The blood is centrifuged for 10 minutes at 10° C. at 1800 g.
The sera once collected are frozen at -25° C.
The TNF-α contained in these sera is assayed 24 hours after the sampling with the murine TNF-α ELISA assay Kit (ref. 1509-00 GENZYME)
Rapid description of the Kit: the method used for this assay is of the sandwich type.
A first anti-murine TNF-A monoclonal antibody is used.
The samples are then deposited and then a second anti-TNF-α goat antibody is caused to react.
The colored reaction uses o-phenylenediamine (OPD).
The reading is made at 492 nm with a plate reader (TITERTEK MKII MCC 340)

[1] = Protection of treated animals given a lethal dose of LPS; format: in vivo, mice

## [(DL) Lip] His - D.homoPhe - Arg - Trp - NH2 [PIV]
TNF-α; 50 μg/ml, five studies
  mean decreases in TNF-α: 37%
TNF-α; 125 μg/ml, five studies
  mean decreases in TNF-α: 40%
TNF-α; 200 μg/ml, five studies
  mean decreases in TNF-α: 46%
TNF-α; all dosages, all the five studies
  mean decreases in TNF-α: ~40%
TNF-α; complementary study reported in Example 8
  immunosuppressive activity against Tumor Necrosis Factor-α: -40%
[1]
  Protection of treated animals (mortality): highly significant retarded mortality rate
